Experimental data: US10041104B2, “Microfluidic device” (Astrego Diagnostics AB, priority 2014, dated 2018)
Values after ≈ are worked out from the molar mass of the structure shown.

Legend:
[1] = tested on: chloramphenicol-resistant E. coli strain; experiment: minimum inhibitory concentration (MIC); type: cell-based; settings: Escherichia coli
[2] = tested on: chloramphenicol-susceptible and chloramphenicol-resistant E. coli strains; experiment: AST test in microfluidic device, phase contrast images (FIG. 15); type: cell-based, Escherichia coli; settings: both strains exposed to 6 μg/ml chloramphenicol; images taken 15 min apart
Source text: The microfluidic device of the embodiments can be used for various applications. An example of such application is antibiotic susceptibility testing (AST). For example, the microfluidic device 1 shown in FIG. 10 can be used for this purpose. In such a case, the sample strain can be loaded from, for instance, the common second fluid port 33A using the first fluid ports 31A′, 31B′, 31C′ as output ports for excess cells and culture medium and the common third fluid port 51 as output port for culture medium and for sucking cells into the cell channels. In an example, during loading culture medium is flown from the common second fluid port 33C to the common second fluid port 33B to prevent contaminating the common second fluid port 33C. After cell loading culture medium preferably flows from the common second fluid port 33C using the first fluid ports 31A′, 31B′, 31C′ and the common third fluid port 51 as output ports. At this stage growth of the cells in the cell channels can be monitored for some time, 0 min to days, while imaging the cells in the different cell channels. […] Susceptibility is monitored by the phenotypic response to antibiotic in the different cell channels. […] Some phenotypic changes are best studied by addition of test agents, such as 4′,6-diamidino-2-phenylindole (DAPI) and SYTOX® fluorescent stains, that can be monitored in a florescence channel. […]

[3] = tested on: chloramphenicol-susceptible E. coli strain; experiment: minimum inhibitory concentration (MIC); type: cell-based; settings: Escherichia coli
[4] = tested on: ciprofloxacin resistant E. coli strain DA20859; experiment: minimum inhibitory concentration (MIC); type: cell-based; settings: Escherichia coli
[5] = tested on: ciprofloxacin resistant E. coli strain DA20859; experiment: AST in microfluidic device, average growth rate response by phase contrast time lapse imaging (FIG. 18); type: cell-based, Escherichia coli
Source text: The microfluidic device of the embodiments can be used for various applications. An example of such application is antibiotic susceptibility testing (AST). For example, the microfluidic device 1 shown in FIG. 10 can be used for this purpose. In such a case, the sample strain can be loaded from, for instance, the common second fluid port 33A using the first fluid ports 31A′, 31B′, 31C′ as output ports for excess cells and culture medium and the common third fluid port 51 as output port for culture medium and for sucking cells into the cell channels. In an example, during loading culture medium is flown from the common second fluid port 33C to the common second fluid port 33B to prevent contaminating the common second fluid port 33C. After cell loading culture medium preferably flows from the common second fluid port 33C using the first fluid ports 31A′, 31B′, 31C′ and the common third fluid port 51 as output ports. At this stage growth of the cells in the cell channels can be monitored for some time, 0 min to days, while imaging the cells in the different cell channels. The AST test starts by flowing different antibiotics or a same antibiotic but at different concentrations into the different sets 2A, 2B, 2C of cell channels using the first fluid ports 31A, 31B, 31C as input ports, while using the common second fluid ports 33A, 33B, 33C and the common third fluid port 51 as output ports. Susceptibility is monitored by the phenotypic response to antibiotic in the different cell channels. For example, it is possible to determine the average growth rate and the cell to cell distribution of growth rates just by monitoring the length extension in phase contrast using automatics images analysis routines. These measurements can be averaged over cells in many cell channels such that it is possible to determine minute phenotypic changes within a few minutes. Phenotypic changes can also be in morphological changes, such as the compaction of DNA or changes in membrane structure or in integrity. Some phenotypic changes are best studied by addition of test agents, such as 4′,6-diamidino-2-phenylindole (DAPI) and SYTOX® fluorescent stains, that can be monitored in a florescence channel.
The E. coli strain was exposed to (1) no drug marked with “x”, (2) erythromycin at 120 μg/ml marked with diamonds or (3) ciprofloxacin 10 μg/ml marked with circles. The time point 0 min corresponds to the start of the treatment. The curve corresponding to treatment with the drug (erythromycin) for which the strain is susceptible can be distinguished from the no treatment curve in <10 min. The curve corresponding to treatment with the drug for which the strain is susceptible can be distinguished from the curve corresponding to the drug (ciprofloxacin) for which the strain is resistant in <15 min.

[6] = tested on: erythromycin-susceptible (non-resistant) E. coli strains; experiment: minimum inhibitory concentration (MIC); type: cell-based; settings: Escherichia coli; two non-resistant E. coli strains (circles and diamonds in FIG. 17)
[7] = tested on: erythromycin-resistant E. coli strain; experiment: minimum inhibitory concentration (MIC); type: cell-based; settings: Escherichia coli
[8] = tested on: erythromycin-resistant and erythromycin-susceptible E. coli strains; experiment: AST in microfluidic device, average growth rate response (FIG. 17); type: cell-based, Escherichia coli; settings: 120 μg/ml erythromycin at time 0 min
Source text: The microfluidic device of the embodiments can be used for various applications. An example of such application is antibiotic susceptibility testing (AST). For example, the microfluidic device 1 shown in FIG. 10 can be used for this purpose. In such a case, the sample strain can be loaded from, for instance, the common second fluid port 33A using the first fluid ports 31A′, 31B′, 31C′ as output ports for excess cells and culture medium and the common third fluid port 51 as output port for culture medium and for sucking cells into the cell channels. In an example, during loading culture medium is flown from the common second fluid port 33C to the common second fluid port 33B to prevent contaminating the common second fluid port 33C. After cell loading culture medium preferably flows from the common second fluid port 33C using the first fluid ports 31A′, 31B′, 31C′ and the common third fluid port 51 as output ports. At this stage growth of the cells in the cell channels can be monitored for some time, 0 min to days, while imaging the cells in the different cell channels. […] Susceptibility is monitored by the phenotypic response to antibiotic in the different cell channels. […] Some phenotypic changes are best studied by addition of test agents, such as 4′,6-diamidino-2-phenylindole (DAPI) and SYTOX® fluorescent stains, that can be monitored in a florescence channel.

Row | SMILES | MIC [1] [µg/mL] | growth of susceptible strain compared with resistant strain [2] | MIC [3] [µg/mL] | MIC [4] [µg/mL] | susceptibility of the strain to the drug [5] | MIC [6] [µg/mL] | MIC [7] [µg/mL] | time in which treatment curve can be distinguished from no treatment curve (average growth rate) ([5]; erythromycin 120 μg/ml) [min] | time in which curve of drug for which strain is susceptible can be distinguished from curve of drug for which strain is resistant ([5]; erythromycin 120 μg/ml versus ciprofloxacin 10 μg/ml) [min] | time in which resistant strain can be distinguished from susceptible strains (average growth rate) [8]
1 | O=C(N[C@H](CO)[C@H](O)c1ccc([N+](=O)[O-])cc1)C(Cl)Cl [chloramphenicol] | > 12 | grown much less than the chloramphenicol-resistant strain | ~4 (≈ 12.4 µM) |  |  |  |  |  |  | 
2 | O=C(O)c1cn(C2CC2)c2cc(N3CCNCC3)c(F)cc2c1=O [ciprofloxacin] |  |  |  | ~30 (≈ 90.5 µM) | resistant |  |  |  |  | 
3 | CC[C@H]1OC(=O)[C@H](C)[C@@H](O[C@H]2C[C@@](C)(OC)[C@@H](O)[C@H](C)O2)[C@H](C)[C@@H](O[C@@H]2O[C@H](C)C[C@H](N(C)C)[C@H]2O)[C@](C)(O)C[C@@H](C)C(=O)[C@H](C)[C@@H](O)[C@]1(C)O [erythromycin] |  |  |  |  | susceptible | ~12 (≈ 16.4 µM) | 256 (≈ 349 µM) | < 10 | < 15 | less than 20 min
